The target in assay [1] is T1, KMT9 (Homo sapiens, UniProt Q9Y5N5).
T1 sequence (Q9Y5N5 1-214): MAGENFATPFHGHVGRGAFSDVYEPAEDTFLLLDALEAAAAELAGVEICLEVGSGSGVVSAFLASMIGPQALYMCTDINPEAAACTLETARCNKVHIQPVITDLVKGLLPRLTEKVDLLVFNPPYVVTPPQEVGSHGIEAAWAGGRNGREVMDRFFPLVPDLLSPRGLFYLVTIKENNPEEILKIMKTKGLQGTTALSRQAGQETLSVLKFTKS
T1 sequence (Q9UI30 1-120 isoform Q9UI30-2 partner): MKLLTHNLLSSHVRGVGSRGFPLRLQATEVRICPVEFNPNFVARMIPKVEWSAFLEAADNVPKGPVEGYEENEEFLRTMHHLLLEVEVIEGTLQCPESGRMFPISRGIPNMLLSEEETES
Kind of assay: Microscale thermophoresis (MST) KMT9 binding. The note with it: microscale thermophoresis, His-tag labelled KMT9 (20 nM); read-out: MST. The essentials: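 Kd from microscale thermophoresis: compound series against 20 nM His-KMT9 labelled via RED-Tris-NTA, buffer 25 mM HEPES (pH 7.5)/100 mM NaCl/1 mM DTT/0.05% Tween, 40% MST power, 100% LED. Reported as classes: A ≤10 nM, B >10–100 nM, C >100–1000 nM, D >1000 nM.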

Assay [2] addresses T1, KMT9. In words: KMT9 methyltransferase inhibition assay, 3H-SAM scintillation (entries 1-154). The class given is biochemical. The note with it: entries 1-154: 3H-SAM assay, 25 nM KMT9, 5 μM ETF1. The essentials:
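Tritium transfer from SAM (0.3 μM 3H-SAM, 0.7 μM unlabelled, final) to 5 μM ETF1 fragment by 25 nM KMT9 was measured after 2 h at 30° C, pH 8.5. Precipitated peptide was collected on filters and scintillation counted; IC50 came from a four-parameter fit of inhibition normalised to controls.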

Assay [3] has as its target T1, KMT9. Kind of assay: KMT9 thermal shift assay (SyproOrange). The class given is binding. The note with it: ΔTm; 500 µM compound, 2 μM KMT9, 5X SO; read-out: Thermal shift. The essentials:
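ΔTm versus DMSO-only control is reported in bins (>20 K, 15–20 K, 10–15 K, ≤10 K), using Tm from Boltzmann sigmoidal fits of SyproOrange melt curves. KMT9 with compound in pH 8.5 BTP buffer containing MgCl2 and DTT was preincubated at 25° C, then ramped 1° C per 15 s up to 95° C.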

Here are results for 16 compounds from patent US20250188110A1, “SPECIFIC SMALL MOLECULE INHIBITORS THAT BLOCK KMT9 METHYLTRANSFERASE ACTIVITY AND FUNCTION” (ALBERT-LUDWIGS-UNIVERSITÄT FREIBURG, priority 2021, published 2025).

Structures are written as SMILES.

One may read the IC50 as the concentration that gives 50% inhibition. Low values mean greater potency, high ones weaker potency.

Turning to `Nc1ncnc2c1c(Br)cn2[C@@H]1C[C@H](CNCCCNCCc2ccc(F)cc2F)[C@@H](O)[C@H]1O` [334 (238), (1R,2S,3R,5R)-3-(4-amino-5-bromo-7H-pyrrolo[2,3-d]pyrimidin-7-yl)-5-(((3-((2,4-difluorophenethyl)amino)propyl)amino)methyl) cyclopentane-1,2-diol], the Kd in assay [1] was 10 to 100 nM. Further, the IC50 in assay [2] fell in the range of 100 to 1000 nM. For the same compound, the ΔTm at 500 µM in assay [3] fell in the range of 15 to 20 °C.
For `Nc1ncnc2c1c(Br)cn2[C@@H]1C[C@H](CNCCCNCCc2ccc(C(F)(F)F)cc2)[C@@H](O)[C@H]1O` [336 (240), (1R,2S,3R,5R)-3-(4-amino-5-bromo-7H-pyrrolo[2,3-d]pyrimidin-7-yl)-5-(((3-((4-(trifluoromethyl)phenethyl)amino)propyl)amino)methyl) cyclopentane-1,2-diol], the Kd in assay [1] was in the range of 100 to 1000 nM. The same compound registered an IC50 in assay [2] of 100 to 1000 nM. In assay [3], the ΔTm at 500 µM was 15 to 20 °C.
For the compound `Nc1ncnc2c1c(Br)cn2[C@@H]1C[C@H](CNCCCNCCc2ccccc2F)[C@@H](O)[C@H]1O` [338 (242), (1R,2S,3R,5R)-3-(4-amino-5-bromo-7H-pyrrolo[2,3-d]pyrimidin-7-yl)-5-(((3-((2-fluorophenethyl)amino)propyl)amino)methyl) cyclopentane-1,2-diol], the Kd in assay [1] was in the range of 10 to 100 nM. The IC50 in assay [2] was in the range of 100 to 1000 nM. For the same compound, the ΔTm at 500 µM in assay [3] was 15 to 20 °C.
As to `Nc1ncnc2c1c(I)cn2[C@@H]1C[C@H](CNCCCNCCc2ccccc2)[C@@H](O)[C@H]1O` [343 (246)], the Kd in assay [1] lay in the range of 100 to 1000 nM. The IC50 in assay [2] was 100 to 1000 nM. Besides, the ΔTm at 500 µM in assay [3] lay within 15 to 20 °C.
With `Nc1ncnc2c1c(Br)cn2[C@@H]1C[C@H](CNCCCNCc2ccc(F)cc2)[C@@H](O)[C@H]1O` [344 (248), (1R,2s,3R,5R)-3-(4-amino-5-bromo-7H-pyrrolo[2,3-d]pyrimidin-7-yl)-5-(((3-((4-fluorobenzyl)amino)propyl)amino)methyl) cyclopentane-1,2-diol], in assay [1], the Kd was 100 to 1000 nM. This compound gave an IC50 in assay [2] of 100 to 1000 nM. In assay [3], the ΔTm at 500 µM lay within 15 to 20 °C.
Take `CNc1ncnc2c1ccn2[C@@H]1C[C@H](C(=O)NCC2CCNCC2)[C@@H](O)[C@H]1O` [346 (250), (1S,2R,3S,4R)-2,3-dihydroxy-4-(4-(methylamino)-7H-pyrrolo[2,3-d]pyrimidin-7-yl)-N-(piperidin-4-ylmethyl) cyclopentane-1-carboxamide]: the Kd in assay [1] is over 1000 nM. The IC50 in assay [2] was over 10000 nM. In addition, in assay [3], the ΔTm at 500 µM was at most 10 °C.
The like results for `CNc1ncnc2c1ccn2[C@@H]1C[C@H](C(=O)NCC2CCCNC2)[C@@H](O)[C@H]1O` (stereo partly drawn) [348 (252), (1S,2R,3S,4R)-2,3-dihydroxy-4-(4-(methylamino)-7H-pyrrolo[2,3-d]pyrimidin-7-yl)-N-(piperidin-3-ylmethyl) cyclopentane-1-carboxamide] were, in that order, over 1000 nM, over 10000 nM and at most 10 °C.
In the same order, the values of `CNc1ncnc2c1ccn2[C@@H]1C[C@H](C(=O)NCC2CCCCN2)[C@@H](O)[C@H]1O` (stereo partly drawn) [350 (254), (1S,2R,3S,4R)-2,3-dihydroxy-4-(4-(methylamino)-7H-pyrrolo[2,3-d]pyrimidin-7-yl)-N-(piperidin-2-ylmethyl) cyclopentane-1-carboxamide] are over 1000 nM, over 10000 nM and at most 10 °C.
Take `CNc1ncnc2c1ccn2[C@@H]1C[C@H](C(=O)N(C)CCCNCCc2cccc(Oc3ccccc3)c2)[C@@H](O)[C@H]1O` [351 (255), (1S,2R,3S,4R)-2,3-dihydroxy-N-methyl-4-(4-(methylamino)-7H-pyrrolo[2,3-a]pyrimidin-7-yl)-N-(3-((3-phenoxyphenethyl)amino)propyl) cyclopentane-1-carboxamide]: in assay [1], the Kd fell in the range of 10 to 100 nM. This compound also returned an IC50 in assay [2] of 1000 to 10000 nM. Moreover, the ΔTm at 500 µM in assay [3] was in the range of 10 to 15 °C.
Regarding `CNc1ncnc2c1ccn2[C@@H]1C[C@H](C(=O)NCCCNCc2ccc(Oc3ccc(Cl)cc3)c(F)c2)[C@@H](O)[C@H]1O` [352 (256), (1S,2R,3S,4R)—N-(3-((4-(4-chlorophenoxy)-3-fluorobenzyl)amino)propyl)-2,3-dihydroxy-4-(4-(methylamino)-7H-pyrrolo[2.3-d]pyrimidin-7-yl)cyclopentane-1-carboxamide], the Kd in assay [1] fell in the range of 100 to 1000 nM. In assay [2], this compound registered an IC50 of over 10000 nM. Further, the ΔTm at 500 µM in assay [3] was 10 to 15 °C.
The like results for `CNc1ncnc2c1ccn2[C@@H]1C[C@H](C(=O)NCCCNCc2cccc(Oc3ccccc3)c2)[C@@H](O)[C@H]1O` [353 (257), (1S,2R,3S,4R)-2,3-dihydroxy-4-(4-(methylamino)-7H-pyrrolo[2,3-d]pyrimidin-7-yl)-N-(3-((3-phenoxybenzyl)amino)propyl) cyclopentane-1-carboxamide] were, in that order, 100 to 1000 nM, 1000 to 10000 nM and 10 to 15 °C.
On to `CNc1ncnc2c1ccn2[C@@H]1C[C@H](C(=O)NCCCNCCc2cccc(Oc3ccccc3)c2)[C@@H](O)[C@H]1O` [354 (258), (1S,2R,3S,4R)-2,3-dihydroxy-4-(4-(methylamino)-7H-pyrrolo[2,3-d]pyrimidin-7-yl)-N-(3-((3-phenoxyphenethyl)amino)propyl) cyclopentane-1-carboxamide], for which, in assay [1], the Kd is 10 to 100 nM. In assay [2], the IC50 was 1000 to 10000 nM. Further, the ΔTm at 500 µM in assay [3] is 15 to 20 °C.
As to `CNc1ncnc2c1ccn2[C@@H]1C[C@H](C(=O)NCCCNCCc2ccc(Oc3ccc(Cl)cc3)c(F)c2)[C@@H](O)[C@H]1O` [355 (259), (1S,2R,3S,4R)—N-(3-((4-(4-chlorophenoxy)-3-fluorophenethyl)amino)propyl)-2,3-dihydroxy-4-(4-(methylamino)-7H-pyrrolo[2,3-a]pyrimidin-7-yl) cyclopentane-1-carboxamide], the Kd in assay [1] lay within 100 to 1000 nM. The compound also displayed an IC50 in assay [2] of 100 to 1000 nM. In addition, the ΔTm at 500 µM in assay [3] was in the range of 10 to 15 °C.
Turning to `CNc1ncnc2c1ccn2[C@@H]1C[C@H](C(=O)NCCNCCc2cccc(Oc3ccccc3)c2)[C@@H](O)[C@H]1O` [356 (260), (1S,2R,3S,4R)-2,3-dihydroxy-4-(4-(methylamino)-7H-pyrrolo[2,3-d]pyrimidin-7-yl)-N-(2-((3-phenoxyphenethyl)amino)ethyl) cyclopentane-1-carboxamide], in assay [1], the Kd is 100 to 1000 nM. Besides, the IC50 in assay [2] was over 10000 nM. Besides, in assay [3], the ΔTm at 500 µM is 10 to 15 °C.
As for `CNc1ncnc2c1ccn2[C@@H]1C[C@H](CNCC(F)(F)CNCCc2ccc3ccccc3c2)[C@@H](O)[C@H]1O` [357 (261), (1S,2R,3R,5R)-3-(((2,2-difluoro-3-((2-(naphthalen-2-yl)ethyl)amino)propyl)amino)methyl)-5-(4-(methylamino)-7H-pyrrolo[2,3-a]pyrimidin-7-yl) cyclopentane-1,2-diol], the Kd in assay [1] is over 1000 nM. Further, the IC50 in assay [2] was over 10000 nM. Besides, the ΔTm at 500 µM in assay [3] is at most 10 °C.
On to `CNc1ncnc2c1ccn2[C@@H]1C[C@H](CN2CC(CNCCc3ccc4ccccc4c3)C2)[C@@H](O)[C@H]1O` [360 (264), (1R,2S,3R,5R)-3-(4-(methylamino)-7H-pyrrolo[2,3-d]pyrimidin-7-yl)-5-((3-(((2-(naphthalen-2-yl)ethyl)amino)methyl)azetidin-1-yl)methyl) cyclopentane-1,2-diol], for which, in assay [1], the Kd is over 1000 nM. The same compound gave an IC50 in assay [2] of over 10000 nM. Besides, the ΔTm at 500 µM in assay [3] was at most 10 °C.
